For assay [1], the target named is T1, Type-1 angiotensin II receptor (Oryctolagus cuniculus, UniProt P34976).
T1 sequence (P34976 whole entry): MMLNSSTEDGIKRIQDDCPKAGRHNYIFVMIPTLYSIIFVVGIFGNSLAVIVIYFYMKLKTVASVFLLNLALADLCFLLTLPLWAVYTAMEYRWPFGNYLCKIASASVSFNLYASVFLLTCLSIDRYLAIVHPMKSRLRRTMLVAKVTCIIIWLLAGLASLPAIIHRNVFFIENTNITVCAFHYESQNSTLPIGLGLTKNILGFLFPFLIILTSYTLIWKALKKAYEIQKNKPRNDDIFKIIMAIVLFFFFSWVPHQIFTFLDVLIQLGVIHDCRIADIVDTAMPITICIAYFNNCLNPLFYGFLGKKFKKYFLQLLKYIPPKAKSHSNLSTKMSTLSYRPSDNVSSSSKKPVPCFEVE
Kind of assay: Antagonist activity at AT1 receptor assessed inhibition of angiotensin-2-induced contraction of rabbit thoracic aortic rings. The format is functional. Particulars: read-out: pA2 (converted).

The target of assay [2] is T2, Type-1 angiotensin II receptor (Bos taurus, UniProt P25104).
T2 sequence (P25104 whole entry): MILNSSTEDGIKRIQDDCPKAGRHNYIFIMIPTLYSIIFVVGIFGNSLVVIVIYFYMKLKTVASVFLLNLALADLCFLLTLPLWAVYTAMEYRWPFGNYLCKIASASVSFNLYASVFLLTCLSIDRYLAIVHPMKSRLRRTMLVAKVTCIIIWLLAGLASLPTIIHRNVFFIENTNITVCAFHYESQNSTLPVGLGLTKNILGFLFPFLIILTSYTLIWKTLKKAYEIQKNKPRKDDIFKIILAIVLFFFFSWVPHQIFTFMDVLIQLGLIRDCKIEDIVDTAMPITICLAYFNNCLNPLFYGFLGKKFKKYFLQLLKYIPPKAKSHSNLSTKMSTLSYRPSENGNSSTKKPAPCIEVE
Kind of assay: Displacement of [125I]angiotensin-2 from bovine adrenal cortex AT1 receptor. The format is tissue-based.

In assay [3] the target is T3, Type-1 angiotensin II receptor (Oryctolagus cuniculus) (UniProt P34976).
T3 sequence (whole entry): T1 sequence (P34976 whole entry)
Kind of assay: Antagonist activity at AT1 receptor assessed inhibition of histamine-induced contraction of rabbit thoracic aortic rings. The assay is classed as functional.

Assay [4] addresses T3, Type-1 angiotensin II receptor (Oryctolagus cuniculus). Kind of assay: Antagonist activity at AT1 receptor assessed inhibition of norepinephrine-induced contraction of rabbit thoracic aortic rings. The format is functional.
Assay [5] deals with Rattus norvegicus. Kind of assay: Reduction of mean arterial pressure in spontaneously hypertensive rat at 1 mg/kg, po. The assay is classed as functional, organism-based. On the set-up: dose 1 mg/kg. Particulars: Artery.
Assay [6] deals with Rattus norvegicus. Briefly: Inhibition of angiotensin-2-induced pressor response in normotensive rat at 1 mg/kg, po. The assay is classed as functional, organism-based. The arrangement: dose 1 mg/kg.
Assay [7] addresses T3, Type-1 angiotensin II receptor (Oryctolagus cuniculus). Briefly: Antagonist activity at AT1 receptor assessed inhibition of KCl-induced contraction of rabbit thoracic aortic rings. The assay is classed as functional.
Assay [8] deals with Rattus norvegicus. Kind of assay: Decrease in mean arterial pressure in po dosed spontaneously hypertensive rat. Particulars: Artery. The format is functional, organism-based.

pIC50: −log10 of the molar value. Calls of active or inactive are those of the source. The calls are words filed in the database; no cut-off is given here.

In general, pIC50 refers to −log10 of the IC50, conventionally taken in molar units. Read a low pIC50 as a large IC50. As to `COC(=O)c1cccc2nc(C)n(Cc3ccc(-n4cccc4-c4nnn[nH]4)cc3)c12`, the Kb in assay [1] was 0.1 µM. The negative logarithm of the IC50 (pIC50) in assay [2] is 6.70.
Regarding `CCCCc1nc2cccc(C(=O)OC)c2n1Cc1ccc(-n2cccc2-c2nnn[nH]2)cc1`, the Kb in assay [1] was 0.00398 µM. Also, the outcome in assay [3], in assay [4] and in assay [7] was inactive. Also, the pIC50 in assay [2] is 8.01. Moreover, the outcome in the assay on Rattus norvegicus [5] and with Rattus norvegicus [6] was Active. Besides, in the assay on Rattus norvegicus [8], the Activity result was “Dose-dependent effect”.
Consider `CCc1nc2cccc(C(=O)O)c2n1Cc1ccc(-n2cccc2C(=O)O)cc1`, for which the Kb in assay [1] was 0.316 µM. The compound further gave a negative-log IC50 (pIC50) in assay [2] of 6.80.
For `CCCCc1nc2cccc(C(=O)O)c2n1Cc1ccc(-n2cccc2C(=O)O)cc1` the same measures were 0.01 µM and 7.48.
On to `CCCc1nc2cccc(C(=O)OC)c2n1Cc1ccc(-n2cccc2-c2nnn[nH]2)cc1`, for which, in assay [1], the Kb is 0.0126 µM. In assay [2], the negative-log IC50 (pIC50) is 7.49.
Consider `CCCCc1nc2cccc(C(=O)O)c2n1Cc1ccc(-n2cccc2-c2nnn[nH]2)cc1`, for which the Kb in assay [1] was 0.00316 µM. The result in assay [3], in assay [4] and in assay [7] was inactive. For the same compound, the pIC50 in assay [2] was 8.16. The result in the assay on Rattus norvegicus [5] and with Rattus norvegicus [6] was Active. For the same compound, the Activity result in the assay on Rattus norvegicus [8] is “Dose-dependent effect”.
For the compound `CCCc1nc2cccc(C(=O)O)c2n1Cc1ccc(-n2cccc2C(=O)O)cc1`, the Kb in assay [1] is 0.1 µM. The compound further gave a pIC50 in assay [2] of 7.04.
The like results for `CCCCc1nc2cccc(C(=O)OCC)c2n1Cc1ccc(-n2cccc2-c2nnn[nH]2)cc1` were, in that order, 0.0158 µM and 7.72.
The like results for `CCCc1nc2cccc(C(=O)O)c2n1Cc1ccc(-n2cccc2-c2nnn[nH]2)cc1` were, in that order, 0.00631 µM and 7.80.
For the compound `Cc1nc2cccc(C(=O)O)c2n1Cc1ccc(-n2cccc2C(=O)O)cc1`, the Kb in assay [1] is 1.26 µM. In assay [2], this compound gave a pIC50 of 6.60.
As to `CCCc1nc2cccc(C(=O)OCC)c2n1Cc1ccc(-n2cccc2-c2nnn[nH]2)cc1`, the Kb in assay [1] was 0.0794 µM. The compound further had a pIC50 in assay [2] of 7.39.
Take `CCc1nc2cccc(C(=O)OC)c2n1Cc1ccc(-n2cccc2-c2nnn[nH]2)cc1`: in assay [1], the Kb was 0.0316 µM. In addition, the negative logarithm of the IC50 (pIC50) in assay [2] is 6.85.

Values taken from ChEMBL document CHEMBL1139921, “Synthesis and biological activity of 2-alkylbenzimidazoles bearing a N-phenylpyrrole moiety as novel angiotensin II AT1 receptor antagonists” (Bioorg Med Chem Lett, 2007).
